# In paper PMC6609544 (British Journal of Pharmacology, 2019):
# Changes are numbered by the printed parent chain. pIC50: −log10 of the molar value.
# Tests used:
# Kv12.1 (Elk1) = molecular target: T1, Kv12.1 (Elk1) (Homo sapiens, UniProt Q96L42); test: whole-cell patch clamp in transfected CHO cells; type: cell-based
# T1 sequence (Q96L42 1-1107): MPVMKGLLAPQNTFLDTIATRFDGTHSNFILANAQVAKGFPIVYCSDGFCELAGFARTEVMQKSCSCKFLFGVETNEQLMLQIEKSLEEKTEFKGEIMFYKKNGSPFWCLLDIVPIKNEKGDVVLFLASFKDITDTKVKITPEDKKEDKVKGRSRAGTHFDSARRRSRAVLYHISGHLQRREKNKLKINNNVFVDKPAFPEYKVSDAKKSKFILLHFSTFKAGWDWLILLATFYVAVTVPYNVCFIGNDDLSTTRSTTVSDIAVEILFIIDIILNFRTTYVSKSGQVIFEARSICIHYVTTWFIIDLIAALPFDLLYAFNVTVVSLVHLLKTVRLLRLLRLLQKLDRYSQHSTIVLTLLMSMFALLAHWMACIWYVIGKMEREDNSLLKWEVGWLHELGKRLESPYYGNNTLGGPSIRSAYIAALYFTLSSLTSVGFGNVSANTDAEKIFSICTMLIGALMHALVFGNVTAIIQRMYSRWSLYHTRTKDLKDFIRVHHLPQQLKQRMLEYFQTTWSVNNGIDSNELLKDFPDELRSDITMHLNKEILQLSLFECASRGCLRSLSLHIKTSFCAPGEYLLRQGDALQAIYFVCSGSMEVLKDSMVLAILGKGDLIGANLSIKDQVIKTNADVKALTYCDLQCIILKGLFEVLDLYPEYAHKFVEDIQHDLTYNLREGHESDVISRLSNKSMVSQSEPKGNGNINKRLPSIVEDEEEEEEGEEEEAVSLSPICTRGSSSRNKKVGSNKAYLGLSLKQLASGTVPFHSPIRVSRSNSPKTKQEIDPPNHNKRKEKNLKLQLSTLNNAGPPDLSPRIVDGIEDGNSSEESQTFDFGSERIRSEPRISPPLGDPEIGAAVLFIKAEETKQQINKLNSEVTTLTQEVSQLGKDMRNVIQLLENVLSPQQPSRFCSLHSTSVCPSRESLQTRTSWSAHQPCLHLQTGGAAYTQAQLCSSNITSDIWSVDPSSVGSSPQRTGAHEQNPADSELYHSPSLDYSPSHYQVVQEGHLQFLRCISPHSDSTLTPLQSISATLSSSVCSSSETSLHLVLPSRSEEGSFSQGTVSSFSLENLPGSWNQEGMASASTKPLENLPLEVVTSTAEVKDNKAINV
# Kv12.1(H462Y) = molecular target: T2, Kv12.1(H462Y) (Homo sapiens, UniProt Q96L42, H462Y); test: whole-cell patch clamp in transfected CHO cells; type: cell-based
# T2 sequence (Q96L42 1-1107 H462Y): T1 sequence (Q96L42 1-1107) with H462Y
smiles,measurement,setting,value
C=C[C@H]1C[N@@]2CC[C@H]1C[C@H]2[C@H](O)c1ccnc2ccc(OC)cc12 [quinine],pIC50,Kv12.1 (Elk1),3.01
same,pIC50,Kv12.1(H462Y),4.25
